# In patent publication US10118947B2, “Modulation of structured polypeptide specificity” (BICYCLE THERAPEUTICS LIMITED, priority 2013, dated 2018):
# Where two headings read alike, the source gives them in different places. Numbered stars: 1 amine (or outer) side, 2 acyl side, 3 side chain; on linkers, the order of the positions; unused ones are H or OH. Bridge positions count the residues as written; N and C are the ends. Square brackets hold non-standard residues; d marks the D form. Peptide text beside a SMILES is read from it. Ala(2-furyl) = N[C@@H](Cc1ccco1)C(=O)O; TBMB = c1c(C[*:1])cc(C[*:3])cc1C[*:2]; X1 = O=C([C@H](Cn1cncn1)N[*:1])[*:2]; 2Pal = N[C@@H](Cc1ccccn1)C(=O)O; 3Pal = N[C@@H](Cc1cccnc1)C(=O)O; Chg = N[C@H](C(=O)O)C1CCCCC1; NMeS = CN[C@@H](CO)C(=O)O; Sar = CNCC(=O)O
# Target: T1, human plasma Kallikrein (Homo sapiens, UniProt P03952)
# T1 construct: purchased Stratech, UK
# Test: Functional enzyme inhibition assay with fluorogenic substrate Z-PheArg-AMC, human plasma Kallikrein
# Assay type: biochemical
# Conditions: for F (Kivar/KiWT): ratio of Ki to wild type
# Method: Functional enzyme assays were conducted in 10 mM Tris HCl, 150 mM NaCl, 10 mM MgCl2, 1 mM CaCl2) and 1 mg/mL BSA (all Sigma UK) pH7.4 at 25° C. in solid black 96 well plates. Briefly 26.5 pM human plasma Kallikrein (purchased from Stratech, UK) or 500 pM rat plasma Kallikrein (expressed and purified in house) were incubated in the absence or presence of increasing concentrations of test peptide for 15 minutes before addition of the fluorogenic substrate Z-PheArg-AMC (Enzo Lifesciences UK) to a final assay concentration of 100 μM in 4% DMSO. Release of AMC was measured using a Pherastar FS (BMG Labtech), excitation 360 nm, emission 460 nm. The rate of the linear phase of the reaction, typically 5 to 45 minutes, was calculated in MARS data analysis software (BMG labtech). The rate was then used to calculate the IC50 and Ki in Prism (GraphPad). A four parameter inhibition non-linear regression equation was used to calculate the IC50.
# Peptides were dissolved as the TFA-salts in their powder form, and stock solutions were usually prepared in water. All solutions were centrifuged and filtered ([…] syringe filters) prior absorption measurement at 280 nm. […] For peptides containing non-natural amino acids with suspected chromophoric properties (i.e. NorHar, 4PhenylPro, 3Pal, 4Pal, Tic, 4GuanPhe, 4,4-BPAI, 3,3-DPA, 1NAI, 2NAI, 4BenzylPro, Ind) concentrations were determined by weighing the powder and dissolving the peptide in a defined quantity of water.
# [1] = Table 3c, D-Alanine scan in Loop2, read-out: Ki
# [2] = Table 24b, residue 7 modifications, read-out: Ki
# T1 sequence (P03952 20-638): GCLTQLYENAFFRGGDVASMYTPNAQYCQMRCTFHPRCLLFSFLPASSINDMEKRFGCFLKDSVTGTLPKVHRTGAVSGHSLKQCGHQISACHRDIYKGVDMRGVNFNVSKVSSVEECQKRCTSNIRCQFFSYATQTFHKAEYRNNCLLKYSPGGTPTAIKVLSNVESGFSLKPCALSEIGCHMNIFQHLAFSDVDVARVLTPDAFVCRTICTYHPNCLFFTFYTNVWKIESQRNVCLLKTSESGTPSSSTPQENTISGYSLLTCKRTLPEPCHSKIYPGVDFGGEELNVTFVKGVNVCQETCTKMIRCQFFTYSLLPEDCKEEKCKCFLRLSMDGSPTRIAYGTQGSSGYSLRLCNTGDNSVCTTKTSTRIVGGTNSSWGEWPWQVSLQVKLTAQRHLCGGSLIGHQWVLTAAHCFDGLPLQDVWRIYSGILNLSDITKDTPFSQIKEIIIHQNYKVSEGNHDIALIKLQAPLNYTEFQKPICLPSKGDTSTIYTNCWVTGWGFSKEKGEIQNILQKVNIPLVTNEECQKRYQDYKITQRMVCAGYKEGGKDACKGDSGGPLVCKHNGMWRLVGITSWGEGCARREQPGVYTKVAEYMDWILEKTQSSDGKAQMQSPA
compound,measurement,setting,value
"CC(C)C[C@@H]1NC(=O)[C@H](CC(=O)O)NC(=O)[C@H](CCC(N)=O)NC(=O)[C@H](Cc2c[nH]cn2)NC(=O)[C@H](C)NC(=O)[C@@H]2CSCc3cc(cc(c3)CSC[C@@H](C(=O)N[C@@H](C)C(N)=O)NC1=O)CSC[C@H](NC(=O)[C@H](C)N)C(=O)N[C@@H](C)C(=O)N[C@@H](Cc1c[nH]c3ccccc13)C(=O)N1CCC[C@H]1C(=O)N[C@@H](C)C(=O)N[C@@H](CCCNC(=N)N)C(=O)N2 [06-34-03-Ala1,6] (H-ACAWPARCAHQDLCA-NH2; linker 2-8-14 via TBMB)",potency / binding to kallikrein (in words),,retained full potency compared to the parent
"CC(C)C[C@@H]1NC(=O)[C@H](CC(=O)O)NC(=O)[C@H](CCC(N)=O)NC(=O)[C@H](Cc2c[nH]cn2)NC(=O)CN(C)C(=O)[C@@H]2CSCc3cc(cc(c3)CSC[C@H](NC(=O)[C@H](C)N)C(=O)N(C)CC(=O)N[C@@H](Cc3c[nH]c4ccccc34)C(=O)N3CCC[C@H]3C(=O)N[C@@H](C)C(=O)N[C@@H](CCCNC(=N)N)C(=O)N2)CSC[C@@H](C(=O)N[C@@H](C)C(N)=O)NC1=O [06-34-03-N-MeGly1,6, ACN-MeGWPARC(N-MeG)HQDLCA] (H-AC[Sar]WPARC[Sar]HQDLCA-NH2; linker 2-8-14 via TBMB; N-terminus and C-terminus assumed)",potency / binding to kallikrein (in words),,reduction in potency
CC(C)C[C@@H]1NC(=O)[C@H](CC(=O)O)NC(=O)[C@H](CCC(N)=O)NC(=O)[C@H](Cc2c[nH]cn2)NC(=O)[C@H](CC(C)C)NC(=O)[C@@H]2CSCc3cc(cc(c3)CSC[C@H](NC(=O)[C@H](C)N)C(=O)N(C)[C@@H](CO)C(=O)N[C@@H](Cc3c[nH]c4ccccc34)C(=O)N3CCC[C@H]3C(=O)N[C@@H](C)C(=O)N[C@@H](CCCNC(=N)N)C(=O)N2)CSC[C@@H](C(=O)N[C@@H](C)C(N)=O)NC1=O [06-34-18-N-MeSer1] (H-AC[NMeS]WPARCLHQDLCA-NH2; linker 2-8-14 via TBMB),Ki,"Ki human PK (nM), Table 6",0.56 nM
CC(=O)N[C@H]1CSCc2cc3cc(c2)CSC[C@H](NC(=O)[C@H](CCCNC(=N)N)NC(=O)[C@H](C)NC(=O)[C@@H]2CCCN2C(=O)[C@H](Cc2c[nH]c4ccccc24)NC(=O)[C@H](CO)NC1=O)C(=O)N[C@@H](C1CCCCC1)C(=O)N[C@@H](Cc1c[nH]cn1)C(=O)N[C@@H](CCC(N)=O)C(=O)N[C@@H](CC(=O)O)C(=O)N[C@@H](CC(C)C)C(=O)N[C@H](C(N)=O)CSC3 [Ac-(06-34-18) Chg6] (Ac-CSWPARC[Chg]HQDLC-NH2; linker 1-7-13 via TBMB),Ki,"Table 24a, residue 6 modification in the context of Ac-(06-34-18), read-out: Ki (nM) Ac-(06-34-18)",0.13 nM
CC(=O)N[C@H]1CSCc2cc3cc(c2)CSC[C@H](NC(=O)[C@H](CCCNC(=N)N)NC(=O)[C@@H](C)NC(=O)[C@@H]2CCCN2C(=O)[C@H](Cc2c[nH]c4ccccc24)NC(=O)[C@H](CO)NC1=O)C(=O)N[C@@H](CC(C)C)C(=O)N[C@@H](Cc1c[nH]cn1)C(=O)N[C@@H](CCC(N)=O)C(=O)N[C@@H](CC(=O)O)C(=O)N[C@@H](CC(C)C)C(=O)N[C@H](C(N)=O)CSC3 [Ac-(06-34-18) D-Ala4],reduction in potency/affinity compared to wildtype,,7000 fold
CC(=O)N[C@H]1CSCc2cc3cc(c2)CSC[C@H](NC(=O)[C@H](CCCNC(=N)N)NC(=O)[C@H](C)NC(=O)[C@@H]2CCCN2C(=O)[C@H](Cc2c[nH]c4ccccc24)NC(=O)[C@H](CO)NC1=O)C(=O)N[C@H](C)C(=O)N[C@@H](Cc1c[nH]cn1)C(=O)N[C@@H](CCC(N)=O)C(=O)N[C@@H](CC(=O)O)C(=O)N[C@@H](CC(C)C)C(=O)N[C@H](C(N)=O)CSC3 [Ac-(06-34-18) D-Ala6] (Ac-CSWPARC[dA]HQDLC-NH2; linker 1-7-13 via TBMB),Ki,[1],1040 nM
same,F (Kivar/KiWT),Table 3c,2469
CC(=O)N[C@H]1CSCc2cc3cc(c2)CSC[C@H](NC(=O)[C@H](CCCNC(=N)N)NC(=O)[C@H](C)NC(=O)[C@@H]2CCCN2C(=O)[C@H](Cc2c[nH]c4ccccc24)NC(=O)[C@H](CO)NC1=O)C(=O)N[C@@H](CC(C)C)C(=O)N[C@@H](Cc1c[nH]cn1)C(=O)N[C@H](C)C(=O)N[C@@H](CC(=O)O)C(=O)N[C@@H](CC(C)C)C(=O)N[C@H](C(N)=O)CSC3 [Ac-(06-34-18) D-Ala8] (Ac-CSWPARCLH[dA]DLC-NH2; linker 1-7-13 via TBMB),Ki,[1],11.7 nM
same,F (Kivar/KiWT),Table 3c,28
CC(=O)N[C@H]1CSCc2cc3cc(c2)CSC[C@H](NC(=O)[C@H](CCCNC(=N)N)NC(=O)[C@H](C)NC(=O)[C@@H]2CCCN2C(=O)[C@H](Cc2c[nH]c4ccccc24)NC(=O)[C@H](CO)NC1=O)C(=O)N[C@@H](CC(C)C)C(=O)N[C@@H](Cc1c[nH]cn1)C(=O)N[C@@H](CCC(N)=O)C(=O)N[C@H](C)C(=O)N[C@@H](CC(C)C)C(=O)N[C@H](C(N)=O)CSC3 [Ac-(06-34-18) D-Ala9] (Ac-CSWPARCLHQ[dA]LC-NH2; linker 1-7-13 via TBMB),Ki,[1],0.87 nM
same,F (Kivar/KiWT),Table 3c,2
CC(=O)N[C@H]1CSCc2cc3cc(c2)CSC[C@H](NC(=O)[C@@H](CCCNC(=N)N)NC(=O)[C@H](C)NC(=O)[C@@H]2CCCN2C(=O)[C@H](Cc2c[nH]c4ccccc24)NC(=O)[C@H](CO)NC1=O)C(=O)N[C@@H](CC(C)C)C(=O)N[C@@H](Cc1c[nH]cn1)C(=O)N[C@@H](CCC(N)=O)C(=O)N[C@@H](CC(=O)O)C(=O)N[C@@H](CC(C)C)C(=O)N[C@H](C(N)=O)CSC3 [Ac-(06-34-18) D-Arg5],reduction in potency/affinity compared to wildtype,,300 fold
CC(=O)N[C@H]1CSCc2cc3cc(c2)CSC[C@H](NC(=O)[C@H](CCCNC(=N)N)NC(=O)[C@H](C)NC(=O)[C@@H]2CCCN2C(=O)[C@@H](Cc2c[nH]c4ccccc24)NC(=O)[C@H](CO)NC1=O)C(=O)N[C@@H](CC(C)C)C(=O)N[C@@H](Cc1c[nH]cn1)C(=O)N[C@@H](CCC(N)=O)C(=O)N[C@@H](CC(=O)O)C(=O)N[C@@H](CC(C)C)C(=O)N[C@H](C(N)=O)CSC3 [Ac-(06-34-18) D-Trp2],reduction in potency/affinity compared to wildtype,,45000 fold
CC(=O)N[C@H]1CSCc2cc3cc(c2)CSC[C@H](NC(=O)[C@H](CCCNC(=N)N(C)C)NC(=O)[C@H](C)NC(=O)[C@@H]2CCCN2C(=O)[C@H](Cc2c[nH]c4ccccc24)NC(=O)[C@H](CO)NC1=O)C(=O)N[C@@H](CC(C)C)C(=O)N[C@@H](Cc1c[nH]cn1)C(=O)N[C@@H](CCC(N)=O)C(=O)N[C@@H](CC(=O)O)C(=O)N[C@@H](CC(C)C)C(=O)N[C@H](C(N)=O)CSC3 [Ac-(06-34-18) NDMA5],Ki,"Table 11, read-out: Ki (nM) (human kallikrein)",510 nM
"CC(=O)N[C@H]1CSCc2cc3cc(c2)CSC[C@H](NC(=O)[C@H](CCCNC(=N)N)NC(=O)[C@H](Cc2ccc(O)cc2)NC(=O)[C@@H]2CCCN2C(=O)[C@H](Cc2ccccc2)NC(=O)[C@H](CO)NC1=O)C(=O)N[C@@H](CC(C)C)C(=O)N[C@@H](Cn1cncn1)C(=O)N[C@@H](CCC(N)=O)C(=O)N[C@@H](CC(=O)O)C(=O)N[C@@H](CC(C)C)C(=O)N[C@H](C(N)=O)CSC3 [Ac-(06-34-18) Phe2 Tyr4 1,2,4-TriAz7] (Ac-CSFPYRCL[X1]QDLC-NH2; linker 1-7-13 via TBMB)",Ki,[2],455 nM
same,F (Kivar/KiWT),Table 24b,1084
CC(=O)N[C@H]1CSCc2cc3cc(c2)CSC[C@H](NC(=O)[C@H](CCCNC(=N)N)NC(=O)[C@H](Cc2ccc(O)cc2)NC(=O)[C@@H]2CCCN2C(=O)[C@H](Cc2ccccc2)NC(=O)[C@H](CO)NC1=O)C(=O)N[C@@H](CC(C)C)C(=O)N[C@@H](Cc1ccccn1)C(=O)N[C@@H](CCC(N)=O)C(=O)N[C@@H](CC(=O)O)C(=O)N[C@@H](CC(C)C)C(=O)N[C@H](C(N)=O)CSC3 [Ac-(06-34-18) Phe2 Tyr4 2Pal7] (Ac-CSFPYRCL[2Pal]QDLC-NH2; linker 1-7-13 via TBMB),Ki,[2],53 nM
same,F (Kivar/KiWT),Table 24b,126
CC(=O)N[C@H]1CSCc2cc3cc(c2)CSC[C@H](NC(=O)[C@H](CCCNC(=N)N)NC(=O)[C@H](Cc2ccc(O)cc2)NC(=O)[C@@H]2CCCN2C(=O)[C@H](Cc2ccccc2)NC(=O)[C@H](CO)NC1=O)C(=O)N[C@@H](CC(C)C)C(=O)N[C@@H](Cc1cccnc1)C(=O)N[C@@H](CCC(N)=O)C(=O)N[C@@H](CC(=O)O)C(=O)N[C@@H](CC(C)C)C(=O)N[C@H](C(N)=O)CSC3 [Ac-(06-34-18) Phe2 Tyr4 3Pal7] (Ac-CSFPYRCL[3Pal]QDLC-NH2; linker 1-7-13 via TBMB),Ki,[2],130 nM
same,F (Kivar/KiWT),Table 24b,308
CC(=O)N[C@H]1CSCc2cc3cc(c2)CSC[C@H](NC(=O)[C@H](CCCNC(=N)N)NC(=O)[C@H](Cc2ccc(O)cc2)NC(=O)[C@@H]2CCCN2C(=O)[C@H](Cc2ccccc2)NC(=O)[C@H](CO)NC1=O)C(=O)N[C@@H](CC(C)C)C(=O)N[C@@H](Cc1ccco1)C(=O)N[C@@H](CCC(N)=O)C(=O)N[C@@H](CC(=O)O)C(=O)N[C@@H](CC(C)C)C(=O)N[C@H](C(N)=O)CSC3 [Ac-(06-34-18) Phe2 Tyr4 4FuAla7] (Ac-CSFPYRCL[Ala(2-furyl)]QDLC-NH2; linker 1-7-13 via TBMB),F (Kivar/KiWT),Table 24b,39
